Laboratory results as given in article PMC12566046, “Arylpiperazinyl-Benzocycloheptapyrrole-Carboxamides Endowed with Dual Anticancer and Antiviral Activities” (Molecules, 2025).
Read-outs that look alike come from different tables or passages of the source.

How the values were obtained:
[1] = in vitro; conditions: dog
[2] = system: NCI-60 cell line panel; test: NCI-60 single-dose assay, whole panel; format: cell-based, human; conditions: summary over the panel
From the text: (§1) We first evaluated the cytotoxic activity of tricyclic-pyrrole carboxamides 1–20 using the NCI-60 cell line panel, representing nine different human cancers: leukemia, melanoma, and cancers of the lung, colon, central nervous system (CNS), ovary, kidney, prostate, and breast (the one-dose graph for compounds 1–20 is reported in Supplementary Materials, Figures S43–S62). Compounds 1, 5, 10, 11, 17, and 20 satisfied pre-determined threshold inhibition criteria in a minimum number of cell lines; therefore, they were also tested in the full five-dose assay (Figures S63–S68 in the Supplementary Materials).

[3] = system: ZIKV, strain Brazil/2016/INMI1; test: ZIKV viral yield reduction assay on Huh-7 cells; format: cell-based, Zika virus; conditions: Zika virus, Huh-7, read-out: ZIKV/Huh‐7 EC50
Experimental: We developed a protocol to screen the potential antiviral activity of compounds 1–20 against ZIKV (strain Brazil) on Huh-7 cells, against an H1N1 IAV strain (PR/8/1934) on MDCK cells, and against SARS-CoV-2 (strain Milano) on Vero-TMPRSS. Each compound was tested in duplicate at concentrations of 50 μM, 5 μM, and 0.5 μM. Treatment was applied immediately after infection, and at 24–48 h post-infection, supernatants were collected to assess viral yield, determined as PFU/mL for ZIKV and SARS-CoV-2 or as TCID50/mL for IAV. The test allowed us to evaluate both the antiviral action and the cytotoxicity of each compound, comparing them with reference compounds, such as sofosbuvir for ZIKV and EIDD-1931 for IAV and SARS-CoV-2 (Supplementary Materials, Figures S87–S89).
Viral yield reduction assays for ZIKV and SARS-CoV-2 were performed as previously described by Plicanti. Briefly, 1 × 10^4 Huh-7 cells/well and 1.2 × 10^4 VERO TMPRSS cells/well were infected with ZIKV (MOI 1) or SARS-CoV-2 (MOI 0.05) in a primary 96-well plate for 2 h at 37 °C, 5% CO2. […] Supernatants were collected after 48 h (Huh-7) or 24 h (VERO TMPRSS), diluted 3-fold, and added onto VERO E6 or VERO TMPRSS monolayers, respectively. After 2 h at 37 °C, the inoculum was replaced with 0.75% carboxymethyl cellulose (Merck®, Darmstadt, Germany) in DMEM 2% FBS. After 48–72 h, cells were then fixed with 4% buffered formalin solution (Merck®, Darmstadt, Germany) and stained with 1% crystal violet (Merck®, Darmstadt, Germany). Titres and percentage of inhibition were calculated as follows:
PFU/mL = number of plaques*3^n/vol infection, where n is the dilution where plaques were counted:% inhibition = 100 × (1 − Titre-compound/Titre-untreated control) where Titre-compound and Titre-untreated control are the titres (PFU/mL) obtained on cells treated with compound or DMSO, respectively.
SI was obtained by dividing CC50 by EC50 for each drug/virus/cell line. Compounds with SI values ≥ 10 were active in vitro.

[4] = system: IAV strain A/PR/8/34 (H1N1)
[5] = system: IAV strain A/PR/8/34 (H1N1); test: microbe, parasite or virus in culture; conditions: Influenza A virus, MDCK
[6] = in vitro; conditions: African green monkey
[7] = system: MALME-3M (melanoma cell line); test: NCI-60 single-dose assay; format: cell-based, human; conditions: Homo sapiens, Malme-3M, read-out: growth inhibition (GI%) and cytotoxicity (negative values)
From the text: as §1

[8] = system: UACC-62 (melanoma cell line); test: NCI-60 single-dose assay; format: cell-based, human; conditions: Homo sapiens, UACC-62, read-out: growth inhibition (GI%) and cytotoxicity (negative values)
From the text: as §1

[9] = system: SK-MEL-2 (melanoma cell line); test: NCI-60 single-dose assay; format: cell-based, human; conditions: Homo sapiens, SK-MEL-2, read-out: growth inhibition (GI%) and cytotoxicity (negative values)
From the text: as §1

[10] = system: BT-549 (breast cancer cell line); test: NCI-60 single-dose assay; format: cell-based, human; conditions: Homo sapiens, BT-549, read-out: growth inhibition (GI%) and cytotoxicity (negative values)
From the text: as §1

[11] = system: MDA-MB-435 (melanoma cell line); test: NCI-60 single-dose assay; format: cell-based, human; conditions: Homo sapiens, MDA-MB-435, read-out: growth inhibition (GI%) and cytotoxicity (negative values)
From the text: as §1

[12] = system: SK-MEL-5 (melanoma cell line); test: NCI-60 single-dose assay; format: cell-based, human; conditions: human
From the text: as §1

[13] = system: LOX IMVI (melanoma cell line); test: NCI-60 single-dose assay; format: cell-based, human; conditions: Homo sapiens, LOX IMVI, read-out: growth inhibition (GI%) and cytotoxicity (negative values)
From the text: as §1

[14] = system: M14 (melanoma cell line); test: NCI-60 single-dose assay; format: cell-based, human; conditions: Homo sapiens, M14, read-out: growth inhibition (GI%) and cytotoxicity (negative values)
From the text: as §1

[15] = system: EKVX (non-small cell lung cancer cell line); test: NCI-60 single-dose assay; format: cell-based, human; conditions: Homo sapiens, read-out: growth inhibition (GI%) and cytotoxicity (negative values)
From the text: as §1

[16] = system: MCF-7 (breast cancer cell line); test: NCI-60 single-dose assay; format: cell-based, human; conditions: Homo sapiens, MCF7, read-out: growth inhibition (GI%) and cytotoxicity (negative values), MCF-7, 10^−5 M
From the text: as §1

[17] = system: MDA-MB-468 (breast cancer cell line); test: NCI-60 single-dose assay; format: cell-based, human; conditions: Homo sapiens, MDA-MB-468, read-out: growth inhibition (GI%) and cytotoxicity (negative values)
From the text: as §1

[18] = system: MDA-MB-231/ATCC (breast cancer cell line); test: NCI-60 single-dose assay; format: cell-based, human; conditions: Homo sapiens, MDA-MB-231, read-out: growth inhibition (GI%) and cytotoxicity (negative values)
From the text: as §1

[19] = system: UACC-257 (melanoma cell line); test: NCI-60 single-dose assay; format: cell-based, human; conditions: Homo sapiens, UACC-257, read-out: growth inhibition (GI%) and cytotoxicity (negative values)
From the text: as §1

[20] = system: SK-MEL-28 (melanoma cell line); test: NCI-60 single-dose assay; format: cell-based, human; conditions: Homo sapiens, SK-MEL-28, read-out: growth inhibition (GI%) and cytotoxicity (negative values)
From the text: as §1

[21] = system: T-47D (breast cancer cell line); test: NCI-60 single-dose assay; format: cell-based, human; conditions: Homo sapiens, T47D, read-out: growth inhibition (GI%) and cytotoxicity (negative values)
From the text: as §1

[22] = Cytotoxicity on uninfected MDCK cells (WST-8, crystal violet); conditions: dog
[23] = Cytotoxicity on uninfected Huh-7 cells (WST-8, crystal violet); conditions: human, uninfected Huh-7 cells
Experimental: The toxicity of the compounds at the same concentration was tested on the same cells in parallel.
Cytotoxic effects were evaluated on uninfected cells using the WST-8 assay (Orangu, Cell Guidance Systems, Cambridge, UK) and the crystal violet assay [23]. […] Huh-7, MDCK, and Vero TMPRSS cells were seeded at 1 × 10^4, 1.5 × 10^4, and 1.2 × 10^4 cells/well, respectively, and incubated for 48 h (Huh-7 and MDCK) or 24 h (VERO TMPRSS), following conditions matching those of the corresponding antiviral assays in terms of timing and culture medium. At the end of incubation, the medium was replaced with a 10% WST-8 solution in DMEM and incubated for 1 h at 37 °C. Optical density (OD) was then measured at 450 nm using a Varioskan LUX plate reader (ThermoFisher Scientific, Milano, Italy). Subsequently, cells were fixed with 4% buffered formalin solution (Merck®, Darmstadt, Germany), stained with 1% crystal violet (Merck®, Darmstadt, Germany), and the dye was solubilized in 30% acetic acid for 30 min under shaking. OD was then measured at 595 nm as an additional readout of cell viability. The percentage of viability at each concentration was calculated using the formula:% viability = 100 × (ODcompound/ODuntreated control) where ODcompound and ODuntreated are the OD of the cells treated with compound or DMSO, respectively.
The CC50 value was determined by nonlinear regression analysis on GraphPad Prism 7 (San Diego, CA, USA).

## O=C(NCCN1CCN(c2ccc(Cl)c(Cl)c2)CC1)c1c(Cl)[nH]c2c1CCCc1ccccc1-2 [Compound 19]
[1]
  CC50: < 50 µM
[2]
  growth inhibition (GI%) reached against cancer cell lines of the NCI-60 panel: > 90%
[3]
  EC50: 4.08 µM
[4]; IAV, MDCK cells, CC50/EC50
  selectivity index (SI): 21.36
[4]; preliminary screening
  IAV/MDCK SI: < 12.17
[5]; 48 h
  EC50: 4.31 µM
[5]; read-out: IAV/MDCK EC50
  EC50: 4.11 µM
[6]
  CC50 at 24 h: 40.8 µM
[7]
  inhibition at 10 µM: < 60%
[8]
  inhibition at 10 µM: < 60%
[9]
  inhibition at 10 µM: < 60%
[10]
  inhibition at 10 µM: < 60%
[11]
  inhibition at 10 µM: < 60%
[12]
  growth inhibition (GI%) and cytotoxicity (negative values): −24.28%
[13]
  inhibition at 10 µM: < 60%
[14]
  inhibition at 10 µM: < 60%
[15]
  inhibition at 10 µM: 61.7%
[16]
  inhibition at 10 µM: < 60%
[17]
  inhibition at 10 µM: 94.2%
[18]
  inhibition at 10 µM: < 60%
[19]
  inhibition at 10 µM: < 60%
[20]
  inhibition at 10 µM: < 60%
[21]
  inhibition at 10 µM: < 60%
[22]
  CC50 at 48 h: 92.1 µM
[23]
  CC50 at 48 h: 12 µM
